Drawing on ChEMBL document CHEMBL5038633 (J Med Chem, 2022), this text covers LED and IC50 for eight compounds.

pIC50: −log10 of the molar value. Where a SMILES comes first, the peptide text is derived from it. Bridges are numbered along the chain shown (N, C = ends). [ ]: non-standard residue; d: D form. Abu(4,4,4-F3) = N[C@@H](CC(F)(F)F)C(=O)O; Phe(4-Cl) = N[C@@H](Cc1ccc(Cl)cc1)C(=O)O; Cha = N[C@@H](CC1CCCCC1)C(=O)O; Chg = N[C@H](C(=O)O)C1CCCCC1 Where only a bound is given, the exact number is not on record here.

Assay [1] can be described thus: Inhibition of mast cell degranulation in Wistar Han rat peritoneal lavage mast cells assessed as inhibition histamine release by measuring lowest concentration at which histamine release observed measured after 30 mins. As to conditions: 0.5 h. The class given is functional.
Assay [2] deals with Sodium channel protein type 9 subunit alpha (Homo sapiens, UniProt Q15858). In words: Inhibition of human Nav1.7 stably expressed in cells with train pulses to -20 mV at 0.1 Hz and holding potential of -95 mV by Qube-automated patch clamp assay. The class given is cell-based. (In general: In patch-clamp work, channel activity is measured electrically.)
The target of assay [3] is Sodium channel protein type 8 subunit alpha (Homo sapiens, UniProt Q9UQD0). As to the kind of experiment: Inhibition of human Nav1.6 stably expressed in cells with train pulses to -20 mV at 0.1 Hz and holding potential of -85 mV by whole-cell Qube-automated patch clamp assay. The class given is cell-based.
Sequence of Sodium channel protein type 8 subunit alpha (Q9UQD0 whole entry): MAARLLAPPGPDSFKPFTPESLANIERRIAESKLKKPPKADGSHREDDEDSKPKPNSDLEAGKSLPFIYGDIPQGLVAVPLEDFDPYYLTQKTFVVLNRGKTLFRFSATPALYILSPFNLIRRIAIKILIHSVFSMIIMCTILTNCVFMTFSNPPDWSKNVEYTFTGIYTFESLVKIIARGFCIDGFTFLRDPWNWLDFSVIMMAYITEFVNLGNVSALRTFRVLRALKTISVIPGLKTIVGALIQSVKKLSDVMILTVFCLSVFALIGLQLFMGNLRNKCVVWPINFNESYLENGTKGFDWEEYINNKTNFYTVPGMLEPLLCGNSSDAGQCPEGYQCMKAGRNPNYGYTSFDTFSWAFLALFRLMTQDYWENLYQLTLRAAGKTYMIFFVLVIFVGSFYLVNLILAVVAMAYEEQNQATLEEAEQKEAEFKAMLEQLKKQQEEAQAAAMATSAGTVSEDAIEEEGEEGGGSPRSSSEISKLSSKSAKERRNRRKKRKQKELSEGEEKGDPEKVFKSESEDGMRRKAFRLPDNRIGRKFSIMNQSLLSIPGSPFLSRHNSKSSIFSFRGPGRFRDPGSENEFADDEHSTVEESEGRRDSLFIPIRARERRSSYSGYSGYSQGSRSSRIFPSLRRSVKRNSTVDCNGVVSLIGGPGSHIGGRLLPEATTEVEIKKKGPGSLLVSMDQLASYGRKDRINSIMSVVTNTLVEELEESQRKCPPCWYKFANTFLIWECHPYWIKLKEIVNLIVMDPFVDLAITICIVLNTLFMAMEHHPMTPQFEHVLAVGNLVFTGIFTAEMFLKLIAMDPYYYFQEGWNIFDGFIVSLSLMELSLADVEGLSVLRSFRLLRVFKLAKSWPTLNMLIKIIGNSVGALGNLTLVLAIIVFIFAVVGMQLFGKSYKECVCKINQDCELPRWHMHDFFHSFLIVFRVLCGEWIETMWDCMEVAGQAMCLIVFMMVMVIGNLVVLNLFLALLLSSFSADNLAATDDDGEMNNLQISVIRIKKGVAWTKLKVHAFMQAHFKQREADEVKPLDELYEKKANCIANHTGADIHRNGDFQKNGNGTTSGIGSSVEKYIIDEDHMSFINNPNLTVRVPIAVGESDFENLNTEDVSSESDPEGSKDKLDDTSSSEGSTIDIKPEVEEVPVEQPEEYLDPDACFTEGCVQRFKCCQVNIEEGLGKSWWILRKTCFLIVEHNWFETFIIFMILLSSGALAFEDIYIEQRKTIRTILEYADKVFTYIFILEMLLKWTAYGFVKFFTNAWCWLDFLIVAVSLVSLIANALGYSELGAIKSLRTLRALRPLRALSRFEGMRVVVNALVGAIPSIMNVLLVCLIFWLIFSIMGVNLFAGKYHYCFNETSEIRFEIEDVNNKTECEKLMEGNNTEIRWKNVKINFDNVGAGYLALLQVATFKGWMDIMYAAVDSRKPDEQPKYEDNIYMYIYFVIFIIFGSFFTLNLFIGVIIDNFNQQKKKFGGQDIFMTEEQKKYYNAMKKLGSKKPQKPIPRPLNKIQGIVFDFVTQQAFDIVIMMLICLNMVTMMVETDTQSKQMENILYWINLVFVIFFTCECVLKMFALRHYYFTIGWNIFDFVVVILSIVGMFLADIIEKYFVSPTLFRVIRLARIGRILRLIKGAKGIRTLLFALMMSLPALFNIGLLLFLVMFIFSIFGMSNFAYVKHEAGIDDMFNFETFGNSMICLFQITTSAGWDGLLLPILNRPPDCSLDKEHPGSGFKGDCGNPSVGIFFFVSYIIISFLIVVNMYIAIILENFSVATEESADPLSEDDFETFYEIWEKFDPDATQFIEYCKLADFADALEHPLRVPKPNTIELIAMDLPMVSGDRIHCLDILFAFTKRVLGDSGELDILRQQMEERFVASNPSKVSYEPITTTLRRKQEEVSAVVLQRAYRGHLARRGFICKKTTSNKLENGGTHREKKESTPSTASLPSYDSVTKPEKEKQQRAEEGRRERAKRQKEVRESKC
Assay [4] deals with Sodium channel protein type 4 subunit alpha (Homo sapiens, UniProt P35499). As to the kind of experiment: Inhibition of human Nav1.4 stably expressed in cells with train pulses to -20 mV at 0.1 Hz and holding potential of -95 mV by whole-cell Qube-automated patch clamp assay. The class given is cell-based.
Sequence of Sodium channel protein type 4 subunit alpha (P35499 whole entry): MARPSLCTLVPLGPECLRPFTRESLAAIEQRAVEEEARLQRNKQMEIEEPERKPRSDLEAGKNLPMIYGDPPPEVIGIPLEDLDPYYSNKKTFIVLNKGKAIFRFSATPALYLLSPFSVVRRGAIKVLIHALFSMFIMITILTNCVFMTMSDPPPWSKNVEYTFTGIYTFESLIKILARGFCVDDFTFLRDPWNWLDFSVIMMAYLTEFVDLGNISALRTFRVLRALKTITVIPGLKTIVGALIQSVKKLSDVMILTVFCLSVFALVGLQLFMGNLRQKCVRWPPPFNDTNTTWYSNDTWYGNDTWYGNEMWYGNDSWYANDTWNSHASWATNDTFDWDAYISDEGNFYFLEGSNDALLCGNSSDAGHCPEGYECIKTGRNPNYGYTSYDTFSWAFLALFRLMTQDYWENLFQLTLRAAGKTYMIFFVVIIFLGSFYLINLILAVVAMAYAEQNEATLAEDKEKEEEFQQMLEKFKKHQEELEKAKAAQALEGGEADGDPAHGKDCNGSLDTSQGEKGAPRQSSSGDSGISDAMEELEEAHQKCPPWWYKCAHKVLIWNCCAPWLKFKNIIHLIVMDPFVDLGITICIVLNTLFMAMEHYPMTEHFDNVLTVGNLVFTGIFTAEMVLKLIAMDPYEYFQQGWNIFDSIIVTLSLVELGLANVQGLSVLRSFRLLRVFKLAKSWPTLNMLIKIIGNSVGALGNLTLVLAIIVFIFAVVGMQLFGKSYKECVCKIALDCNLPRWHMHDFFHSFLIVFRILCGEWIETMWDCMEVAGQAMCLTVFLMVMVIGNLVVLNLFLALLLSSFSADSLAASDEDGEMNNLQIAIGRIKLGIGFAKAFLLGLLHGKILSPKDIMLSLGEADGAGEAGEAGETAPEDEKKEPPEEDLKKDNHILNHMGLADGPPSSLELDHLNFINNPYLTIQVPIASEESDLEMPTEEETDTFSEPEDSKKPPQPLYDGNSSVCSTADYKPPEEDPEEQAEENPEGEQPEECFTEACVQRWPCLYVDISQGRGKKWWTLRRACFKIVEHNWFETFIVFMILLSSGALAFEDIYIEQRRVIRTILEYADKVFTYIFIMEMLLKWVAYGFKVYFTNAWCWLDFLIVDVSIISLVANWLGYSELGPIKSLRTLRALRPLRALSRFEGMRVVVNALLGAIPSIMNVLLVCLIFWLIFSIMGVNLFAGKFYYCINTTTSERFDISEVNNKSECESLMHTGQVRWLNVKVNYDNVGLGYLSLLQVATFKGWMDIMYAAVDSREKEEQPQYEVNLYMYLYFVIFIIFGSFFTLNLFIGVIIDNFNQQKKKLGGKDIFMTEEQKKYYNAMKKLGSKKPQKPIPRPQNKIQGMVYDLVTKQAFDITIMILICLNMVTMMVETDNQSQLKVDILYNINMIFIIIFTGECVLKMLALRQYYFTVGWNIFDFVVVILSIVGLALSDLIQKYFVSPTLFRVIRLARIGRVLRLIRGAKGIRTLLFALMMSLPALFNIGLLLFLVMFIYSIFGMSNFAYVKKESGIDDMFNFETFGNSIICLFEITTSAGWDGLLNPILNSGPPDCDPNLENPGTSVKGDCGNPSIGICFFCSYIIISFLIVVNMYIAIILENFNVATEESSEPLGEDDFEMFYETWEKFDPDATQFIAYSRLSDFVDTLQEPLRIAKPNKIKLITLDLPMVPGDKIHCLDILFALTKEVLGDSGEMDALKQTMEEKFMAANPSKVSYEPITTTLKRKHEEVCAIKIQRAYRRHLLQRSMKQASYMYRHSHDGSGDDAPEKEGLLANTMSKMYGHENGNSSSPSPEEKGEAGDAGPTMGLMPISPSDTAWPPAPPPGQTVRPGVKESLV

As to `CC(=O)N[C@H]1CSSC[C@@H]2NC(=O)[C@@H]3CSSC[C@@H](C(=O)N[C@@H](CCCCN)C(=O)N[C@@H](CCCCN)C(=O)N[C@@H](CCCCN)C(=O)N[C@@H](CC(C)C)C(=O)N[C@@H](Cc4c[nH]c5ccccc45)C(=O)O)NC(=O)[C@H](Cc4c[nH]c5ccccc45)NC(=O)[C@H](C4CCCCC4)NC(=O)[C@H](CCCCN)NC(=O)[C@H](CSSC[C@H](NC(=O)[C@@H]4CCCN4C(=O)[C@H](CCC(=O)O)NC(=O)[C@H](CC(F)(F)F)NC(=O)[C@H](Cc4ccc(Cl)cc4)NC(=O)[C@H](CCCCN)NC(=O)[C@H](CCC(N)=O)NC1=O)C(=O)N[C@@H](CC(=O)O)C(=O)N[C@@H](CO)C(=O)N[C@@H](CCC(=O)O)C(=O)N[C@@H](CCCNC(=N)N)C(=O)N[C@@H](CCCCN)C(=O)N3)NC(=O)[C@H](CCC(=O)O)NC(=O)[C@H](CC(C)C)NC(=O)CNC(=O)[C@H](CCC(=O)O)NC2=O` (Ac-CQK[Phe(4-Cl)][Abu(4,4,4-F3)]EPCDSERKCCEGLECK[Chg]WCKKKLW-OH; disulfide 1-15, 8-20, 14-24), the LED in assay [1] was 30 µM. The pIC50 (commonly the negative decadic logarithm of the IC50, by convention in mol/L) in assay [2] was 7.04; in assay [3] it was 4.95; in assay [4] it was below 4.77.

Regarding `CC(=O)N[C@H]1CSSC[C@@H]2NC(=O)[C@@H]3CSSC[C@@H](C(=O)N[C@@H](CCCCN)C(=O)N[C@@H](CCCCN)C(=O)N[C@@H](CCCCN)C(=O)N[C@@H](CC(C)C)C(=O)N[C@@H](Cc4c[nH]c5ccccc45)C(N)=O)NC(=O)[C@H](Cc4c[nH]c5ccccc45)NC(=O)[C@H](CC(C)C)NC(=O)[C@H](CCCCN)NC(=O)[C@H](CSSC[C@H](NC(=O)[C@@H]4CCCN4C(=O)[C@H](CCCCN)NC(=O)[C@H](CC(C)C)NC(=O)[C@H](Cc4ccccc4)NC(=O)[C@H](CCC(=O)O)NC(=O)[C@H](CCC(N)=O)NC1=O)C(=O)N[C@@H](CC(=O)O)C(=O)N[C@@H](CCC(=O)O)C(=O)N[C@@H](CCC(=O)O)C(=O)N[C@@H](CCCNC(=N)N)C(=O)N[C@@H](CCCCN)C(=O)N3)NC(=O)[C@H](C(C)C)NC(=O)[C@H](CC(C)C)NC(=O)CNC(=O)[C@H](CCC(=O)O)NC2=O` (Ac-CQEFLKPCDEERKCCEGLVCKLWCKKKLW-NH2; disulfide 1-15, 8-20, 14-24), the LED in assay [1] was 10 µM. Moreover, the pIC50 in assay [2] is 6.65; in assay [3] it was below 4.77; in assay [4] it was below 4.77.

`CC(=O)N[C@H]1CSSC[C@@H]2NC(=O)[C@@H]3CSSC[C@@H](C(=O)N[C@@H](CCCCN)C(=O)N[C@@H](CCCCN)C(=O)N[C@@H](CCCCN)C(=O)N[C@@H](CC(C)C)C(=O)N[C@@H](Cc4c[nH]c5ccccc45)C(N)=O)NC(=O)[C@H](Cc4c[nH]c5ccccc45)NC(=O)[C@H](CC(C)C)NC(=O)[C@H](CCCNC(=N)N)NC(=O)[C@H](CSSC[C@H](NC(=O)[C@@H]4CCCN4C(=O)[C@H](C)NC(=O)[C@H](CC(C)C)NC(=O)[C@H](Cc4ccccc4)NC(=O)[C@H](CCCCN)NC(=O)[C@H](CCC(N)=O)NC1=O)C(=O)N[C@@H](CC(=O)O)C(=O)N[C@@H](CO)C(=O)N[C@@H](CCC(=O)O)C(=O)N[C@@H](CCCNC(=N)N)C(=O)N[C@@H](CCCCN)C(=O)N3)NC(=O)[C@H](C(C)C)NC(=O)[C@H](CC(C)C)NC(=O)CNC(=O)[C@H](CCC(=O)O)NC2=O` (Ac-CQKFLAPCDSERKCCEGLVCRLWCKKKLW-NH2; disulfide 1-15, 8-20, 14-24): in assay [1], the LED was found to be 3.3 µM. Besides, the pIC50 was 7.70 in assay [2], 5.91 in assay [3] and 5.91 in assay [4].

As for `CC(=O)N[C@H]1CSSC[C@@H]2NC(=O)[C@@H]3CSSC[C@@H](C(=O)N[C@@H](CCCCN)C(=O)N[C@@H](CCCCN)C(=O)N[C@@H](CCCCN)C(=O)N[C@@H](CC(C)C)C(=O)N[C@@H](Cc4c[nH]c5ccccc45)C(N)=O)NC(=O)[C@H](Cc4c[nH]c5ccccc45)NC(=O)[C@H](C4CCCCC4)NC(=O)[C@H](CCCCN)NC(=O)[C@H](CSSC[C@H](NC(=O)[C@@H]4CCCN4C(=O)[C@H](CCC(=O)O)NC(=O)[C@H](CC(F)(F)F)NC(=O)[C@H](Cc4ccccc4)NC(=O)[C@H](CCCCN)NC(=O)[C@H](CCC(N)=O)NC1=O)C(=O)N[C@@H](CC(=O)O)C(=O)N[C@@H](CO)C(=O)N[C@@H](CCC(=O)O)C(=O)N[C@@H](CCCNC(=N)N)C(=O)N[C@@H](CCCCN)C(=O)N3)NC(=O)[C@H](CCC(=O)O)NC(=O)[C@H](CC(C)C)NC(=O)CNC(=O)[C@H](CCC(=O)O)NC2=O` (Ac-CQKF[Abu(4,4,4-F3)]EPCDSERKCCEGLECK[Chg]WCKKKLW-NH2; disulfide 1-15, 8-20, 14-24), the LED in assay [1] turned out to be 30 µM. Besides, the negative-log IC50 (pIC50) in assay [2] was 7.08; in assay [3] it was below 4.77; in assay [4], below 4.77.

As for `CC(=O)N[C@H]1CSSC[C@@H]2NC(=O)[C@@H]3CSSC[C@@H](C(=O)N[C@@H](CCCCN)C(=O)N[C@@H](CCCCN)C(=O)N[C@@H](CCCCN)C(=O)N[C@@H](CC(C)C)C(=O)N[C@@H](Cc4c[nH]c5ccccc45)C(N)=O)NC(=O)[C@H](Cc4c[nH]c5ccccc45)NC(=O)[C@H](CC(C)C)NC(=O)[C@H](CCCCN)NC(=O)[C@H](CSSC[C@H](NC(=O)[C@@H]4CCCN4C(=O)[C@H](CCC(=O)O)NC(=O)[C@H](CC(C)C)NC(=O)[C@H](Cc4ccccc4)NC(=O)[C@H](CCCCN)NC(=O)[C@H](CCC(N)=O)NC1=O)C(=O)N[C@@H](CC(=O)O)C(=O)N[C@@H](CCC(=O)O)C(=O)N[C@@H](CCC(=O)O)C(=O)N[C@@H](CCCNC(=N)N)C(=O)N[C@@H](CCCCN)C(=O)N3)NC(=O)[C@H](C(C)C)NC(=O)[C@H](CC(C)C)NC(=O)CNC(=O)[C@H](CCC(=O)O)NC2=O` (Ac-CQKFLEPCDEERKCCEGLVCKLWCKKKLW-NH2; disulfide 1-15, 8-20, 14-24), in assay [1], the LED was 10 µM. The pIC50 is 6.66 in assay [2], below 4.77 in assay [3] and below 4.77 in assay [4].

As to `CC(=O)N[C@H]1CSSC[C@@H]2NC(=O)[C@@H]3CSSC[C@@H](C(=O)N[C@@H](CCCCN)C(=O)N[C@@H](CCCCN)C(=O)N[C@@H](CCCCN)C(=O)N[C@@H](CC(C)C)C(=O)N[C@@H](Cc4c[nH]c5ccccc45)C(N)=O)NC(=O)[C@H](Cc4c[nH]c5ccccc45)NC(=O)[C@H](CC(C)C)NC(=O)[C@H](CCCNC(=N)N)NC(=O)[C@H](CSSC[C@H](NC(=O)[C@@H]4CCCN4C(=O)[C@H](CCC(=O)O)NC(=O)[C@H](CC(C)C)NC(=O)[C@H](Cc4ccccc4)NC(=O)[C@H](CCCCN)NC(=O)[C@H](CCC(N)=O)NC1=O)C(=O)N[C@@H](CC(=O)O)C(=O)N[C@@H](CO)C(=O)N[C@@H](CCC(=O)O)C(=O)N[C@@H](CCCNC(=N)N)C(=O)N[C@@H](CCCCN)C(=O)N3)NC(=O)[C@H](CCC(=O)O)NC(=O)[C@H](CC(C)C)NC(=O)CNC(=O)[C@H](CCC(=O)O)NC2=O` (Ac-CQKFLEPCDSERKCCEGLECRLWCKKKLW-NH2; disulfide 1-15, 8-20, 14-24), the LED in assay [1] is 10 µM. In addition, the pIC50 in assay [2] is 7.01; in assay [3] it was below 4.77; in assay [4], below 4.77.

With `CC(=O)N[C@H]1CSSC[C@@H]2NC(=O)[C@@H]3CSSC[C@@H](C(=O)N[C@@H](CCCCN)C(=O)N[C@@H](CCCCN)C(=O)N[C@@H](CCCCN)C(=O)N[C@@H](CC(C)C)C(=O)N[C@@H](Cc4c[nH]c5ccccc45)C(N)=O)NC(=O)[C@H](Cc4c[nH]c5ccccc45)NC(=O)[C@H](CC(C)C)NC(=O)[C@H](CCCCN)NC(=O)[C@H](CSSC[C@H](NC(=O)[C@@H]4CCCN4C(=O)[C@H](C)NC(=O)[C@H](CC(C)C)NC(=O)[C@H](Cc4ccccc4)NC(=O)[C@H](CCCCN)NC(=O)[C@H](CCC(N)=O)NC1=O)C(=O)N[C@@H](CC(=O)O)C(=O)N[C@@H](CO)C(=O)N[C@@H](CCC(=O)O)C(=O)N[C@@H](CCCNC(=N)N)C(=O)N[C@@H](CCCCN)C(=O)N3)NC(=O)[C@H](CCC(=O)O)NC(=O)[C@H](CC(C)C)NC(=O)CNC(=O)[C@H](CCC(=O)O)NC2=O` (Ac-CQKFLAPCDSERKCCEGLECKLWCKKKLW-NH2; disulfide 1-15, 8-20, 14-24), the LED in assay [1] was 10 µM. The results for the pIC50 in assay [2], in assay [3] and in assay [4] were 7.20, below 4.77 and below 4.77, respectively.

As to `CC(=O)N[C@H]1CSSC[C@@H]2NC(=O)[C@@H]3CSSC[C@@H](C(=O)N[C@@H](CCCCN)C(=O)N[C@@H](CCCCN)C(=O)N[C@@H](CCCCN)C(=O)N[C@@H](CC(C)C)C(=O)N[C@@H](Cc4c[nH]c5ccccc45)C(N)=O)NC(=O)[C@H](Cc4c[nH]c5ccccc45)NC(=O)[C@H](CC4CCCCC4)NC(=O)[C@H](CCCCN)NC(=O)[C@H](CSSC[C@H](NC(=O)[C@@H]4CCCN4C(=O)[C@H](CCC(=O)O)NC(=O)[C@H](CC(F)(F)F)NC(=O)[C@H](CC4CCCCC4)NC(=O)[C@H](CCCCN)NC(=O)[C@H](CCC(N)=O)NC1=O)C(=O)N[C@@H](CC(=O)O)C(=O)N[C@@H](CO)C(=O)N[C@@H](CCC(=O)O)C(=O)N[C@@H](CCCNC(=N)N)C(=O)N[C@@H](CCCCN)C(=O)N3)NC(=O)[C@H](CCC(=O)O)NC(=O)[C@H](CC(C)C)NC(=O)CNC(=O)[C@H](CCC(=O)O)NC2=O` (Ac-CQK[Cha][Abu(4,4,4-F3)]EPCDSERKCCEGLECK[Cha]WCKKKLW-NH2; disulfide 1-15, 8-20, 14-24), the LED in assay [1] was found to be 33 µM. Besides, the pIC50 in assay [2] is 7.12; in assay [3], below 4.77; in assay [4] it was below 4.77.
